Test results taken from US9359308B2, “Pyrazine kinase inhibitors” (Portola Pharmaceuticals, Inc., priority 2011, dated 2016).
pIC50: −log10 of the molar value.

What follows are compounds tested against T1, full length active recombinant SYK enzyme (Homo sapiens, UniProt P43405) (assay: Inhibition of Syk tyrosine phosphorylation activity (LANCE TR-FRET kinase assay)). Conditions: activity in the Syk assays, class symbols.
T1 construct: full length active recombinant SYK enzyme (Millipore, Calif.); purchased Millipore
Format: biochemical
Outline: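 IC50 was derived by non-linear regression of TR-FRET signal (Eu-W1024-PY100 donor, streptavidin-APC acceptor) read 1 h after EDTA quench. The kinase step ran 1 h at room temperature with 1 nM full-length SYK, 550 nM biotinylated DEEDYESP substrate and 100 μM ATP in Tris pH 7.5/MgCl2/DTT at 3% final DMSO.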

Row | Compound | pIC50
1 | CC(C)C[C@@H](Nc1cnc(C(N)=O)c(Nc2ccc(C(=O)N3CCC3)nc2)n1)C(N)=O [Example 282, (R)-5-(1-amino-4-methyl-1-oxopentan-2-ylamino)-3-(6-(azetidine-1-carbonyl)pyridin-3-ylamino)pyrazine-2-carboxamide] | 8.00 to 9.00
2 | CN(C)C(=O)c1cccc(Nc2nc(N[C@@H]3CCCC[C@@H]3N)cnc2C(N)=O)c1 [Example 283, 5-((1R,2S)-2-aminocyclohexylamino)-3-(3-(dimethylcarbamoyl)phenylamino)pyrazine-2-carboxamide] | 7.00 to 8.00
3 | CN(C)C(=O)c1cc(Nc2nc(N[C@@H]3CCCC[C@@H]3N)cnc2C(N)=O)ccc1F [Example 284, 5-((1R,2S)-2-aminocyclohexylamino)-3-(3-(dimethylcarbamoyl)-4-fluorophenylamino)pyrazine-2-carboxamide] | 6.00 to 7.00
4 | NC(=O)c1ncc(N[C@@H]2CCCC[C@@H]2N)nc1Nc1ccc(N2CCCC2)c(C(=O)N2CCCC2)c1 [Example 285, 5-((1R,2S)-2-aminocyclohexylamino)-3-(4-(pyrrolidin-1-yl)-3-(pyrrolidine-1-carbonyl)phenylamino)pyrazine-2-carboxamide] | 6.00 to 7.00
5 | COc1ccc(Nc2nc(N[C@@H]3CCCC[C@@H]3N)cnc2C(N)=O)cc1C(=O)N(C)C [Example 286, 5-((1R,2S)-2-aminocyclohexylamino)-3-(3-(dimethylcarbamoyl)-4-methoxyphenylamino)pyrazine-2-carboxamide] | 6.00 to 7.00
6 | NC(=O)c1ncc(N[C@@H]2CCCC[C@@H]2N)nc1Nc1cccc(C(=O)N2CCCC2)c1 [Example 287, 5-((1R,2S)-2-aminocyclohexylamino)-3-(3-(pyrrolidine-1-carbonyl)phenylamino)pyrazine-2-carboxamide] | 7.00 to 8.00
7 | CN(C)C(=O)c1ccc(F)c(Nc2nc(N[C@@H]3CCCC[C@@H]3N)cnc2C(N)=O)c1 [Example 288, 5-((1R,2S)-2-aminocyclohexylamino)-3-(5-(dimethylcarbamoyl)-2-fluorophenylamino)pyrazine-2-carboxamide] | 6.00 to 7.00
8 | NC(=O)c1ncc(N[C@@H]2CCCC[C@@H]2N)nc1Nc1cc(C(=O)N2CCCC2)ccc1F [Example 289, 5-((1R,2S)-2-aminocyclohexylamino)-3-(2-fluoro-5-(pyrrolidine-1-carbonyl)phenylamino)pyrazine-2-carboxamide] | 7.00 to 8.00
9 | COc1ccc(C(=O)N(C)C)cc1Nc1nc(N[C@@H]2CCCC[C@@H]2N)cnc1C(N)=O [Example 290, 5-((1R,2S)-2-aminocyclohexylamino)-3-(5-(dimethylcarbamoyl)-2-methoxyphenylamino)pyrazine-2-carboxamide] | 6.00 to 7.00
10 | COc1cc(Nc2nc(N[C@@H]3CCCC[C@@H]3N)cnc2C(N)=O)ccn1 [Example 291, 5-((1R,2S)-2-aminocyclohexylamino)-3-(2-methoxypyridin-4-ylamino)pyrazine-2-carboxamide] | 8.00 to 9.00
11 | CC(C)C[C@@H](Nc1cnc(C(N)=O)c(Nc2cccc(C(=O)N(C)C)c2)n1)C(N)=O [Example 292, (R)-5-(1-amino-4-methyl-1-oxopentan-2-ylamino)-3-(3-(dimethylcarbamoyl)phenylamino)pyrazine-2-carboxamide] | 6.00 to 7.00
12 | CC(C)C[C@@H](Nc1cnc(C(N)=O)c(Nc2ccc(C(=O)N3CCC3)cc2)n1)C(N)=O [Example 293, (R)-5-(1-amino-4-methyl-1-oxopentan-2-ylamino)-3-(4-(azetidine-1-carbonyl)phenylamino)pyrazine-2-carboxamide] | 8.00 to 9.00
13 | CC(C)C[C@@H](Nc1cnc(C(N)=O)c(Nc2ccc(C(=O)O)nc2)n1)C(N)=O [Example 294, (R)-5-(6-(1-amino-4-methyl-1-oxopentan-2-ylamino)-3-carbamoylpyrazin-2-ylamino)picolinic acid] | 6.00 to 7.00
14 | NC(=O)c1ncc(N[C@@H]2CCCC[C@@H]2N)nc1Nc1ccc(C(=O)N2CCC2)cc1 [Example 295, 5-((1R,2S)-2-aminocyclohexylamino)-3-(4-(azetidine-1-carbonyl)phenylamino)pyrazine-2-carboxamide] | 8.00 to 9.00
15 | COc1ccc(Nc2nc(N[C@@H]3CCCC[C@@H]3N)cnc2C(N)=O)cn1 [Example 296, 5-((1R,2S)-2-aminocyclohexylamino)-3-(6-methoxypyridin-3-ylamino)pyrazine-2-carboxamide] | 8.00 to 9.00
16 | NC(=O)c1ncc(N[C@@H]2CCCC[C@@H]2N)nc1Nc1ccc(C(=O)N2CC(F)(F)C2)nc1 [Example 297, 5-((1R,2S)-2-aminocyclohexylamino)-3-(6-(3,3-difluoroazetidine-1-carbonyl)pyridin-3-ylamino)pyrazine-2-carboxamide] | 8.00 to 9.00
17 | CN(CC(F)(F)F)C(=O)c1ccc(Nc2nc(N[C@@H]3CCCC[C@@H]3N)cnc2C(N)=O)cc1 [Example 298, 5-((1R,2S)-2-aminocyclohexylamino)-3-(4-(methyl(2,2,2-trifluoroethyl)carbamoyl)phenylamino)pyrazine-2-carboxamide] | 7.00 to 8.00
18 | CC[C@@H](Nc1cnc(C(N)=O)c(Nc2ccc(C(=O)N(C)C)cc2)n1)C(N)=O [Example 299, (R)-5-(1-amino-1-oxobutan-2-ylamino)-3-(4-(dimethylcarbamoyl)phenylamino)pyrazine-2-carboxamide] | 6.00 to 7.00
19 | CC[C@@H](Nc1cnc(C(N)=O)c(Nc2ccc(C(=O)N3CCC3)nc2)n1)C(N)=O [Example 300, (R)-5-(1-amino-1-oxobutan-2-ylamino)-3-(6-(azetidine-1-carbonyl)pyridin-3-ylamino)pyrazine-2-carboxamide] | 7.00 to 8.00
20 | CC[C@@H](Nc1cnc(C(N)=O)c(Nc2ccc(C(=O)N3CC(F)(F)C3)nc2)n1)C(N)=O [Example 301, (R)-5-(1-amino-1-oxobutan-2-ylamino)-3-(6-(3,3-difluoroazetidine-1-carbonyl)pyridin-3-ylamino)pyrazine-2-carboxamide] | 7.00 to 8.00
21 | CC[C@@H](Nc1cnc(C(N)=O)c(Nc2ccnc(OC)c2)n1)C(N)=O [Example 302, (R)-5-(1-amino-1-oxobutan-2-ylamino)-3-(2-methoxypyridin-4-ylamino)pyrazine-2-carboxamide] | 7.00 to 8.00
22 | NC(=O)c1ncc(N[C@@H]2CCCC[C@@H]2N)nc1Nc1cncnc1 [Example 303, 5-((1R,2S)-2-aminocyclohexylamino)-3-(pyrimidin-5-ylamino)pyrazine-2-carboxamide] | 7.00 to 8.00
23 | NC(=O)c1ncc(N[C@@H]2CCCC[C@@H]2N)nc1Nc1ccc(F)nc1 [Example 304, 5-((1R,2S)-2-aminocyclohexylamino)-3-(6-fluoropyridin-3-ylamino)pyrazine-2-carboxamide] | 7.00 to 8.00
24 | COc1ncc(Nc2nc(N[C@@H]3CCCC[C@@H]3N)cnc2C(N)=O)cn1 [Example 305, 5-((1R,2S)-2-aminocyclohexylamino)-3-(2-methoxypyrimidin-5-ylamino)pyrazine-2-carboxamide] | 7.00 to 8.00
25 | COc1ncc(Nc2nc(N[C@@H]3CCCC[C@@H]3N)cnc2C(N)=O)cc1C [Example 306, 5-((1R,2S)-2-aminocyclohexylamino)-3-(6-methoxy-5-methylpyridin-3-ylamino)pyrazine-2-carboxamide] | 8.00 to 9.00
26 | NC(=O)c1ncc(N[C@@H]2CCCC[C@@H]2N)nc1Nc1cccc(C(=O)N2CCC2)c1 [Example 307, 5-((1R,2S)-2-aminocyclohexylamino)-3-(3-(azetidine-1-carbonyl)phenylamino)pyrazine-2-carboxamide] | 7.00 to 8.00
